Source: US20170190671A1, “BIS(ARYL)CATECHOL DERIVATIVES AS HERBICIDES” (E I DU PONT DE NEMOURS AND COMPANY, priority 2014, published 2017)

Legend:
Format in all cases: in vivo
[1] = tested on: barnyardgrass (Echinochloa crus-galli); test: Test B flooded paddy; details: Echinochloa crus-galli, 336 h; 250 g ai/ha, Flood, 13 to 15 days, scale 0 (no effect) to 100 (complete control); read-out: Plant response rating, Barnyardgrass
Outline: (§1)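 Ratings were visual and made relative to untreated controls after 13 to 15 greenhouse days.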

[2] = tested on: ducksalad (Heteranthera limosa); test: Test B flooded paddy; details: Heteranthera limosa, 336 h; 250 g ai/ha, Flood, 13 to 15 days, scale 0 (no effect) to 100 (complete control); read-out: Plant response rating, Ducksalad
Outline: as §1

rice (Oryza sativa) = test: Test B flooded paddy; details: Oryza sativa, 336 h; 250 g ai/ha, Flood, 13 to 15 days, scale 0 (no effect) to 100 (complete control); read-out: Plant response rating, Rice
Outline: as §1

[3] = tested on: sedge, umbrella (small-flower umbrella sedge, Cyperus difformis); test: Test B flooded paddy; details: Cyperus difformis, 336 h; 250 g ai/ha, Flood, 13 to 15 days, scale 0 (no effect) to 100 (complete control); read-out: Plant response rating, Sedge, Umbrella
Outline: as §1

[4] = tested on: Italian ryegrass (Lolium multiflorum); test: Test A preemergence; details: Lolium multiflorum, pre-emergence, 240 h
Outline: (§2)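 Visual 0–100 rating (100 = complete control) taken about 10 d post-treatment relative to untreated checks. Preemergence: directed soil spray on sown loam/sand pots. Postemergence: seedlings 2–10 cm, 1–2 leaf. Non-phytotoxic solvent formulation with surfactant.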

[5] = tested on: barnyardgrass (Echinochloa crus-galli); test: Test A preemergence; details: Echinochloa crus-galli, pre-emergence, 240 h
Outline: as §2

[6] = tested on: giant foxtail (Setaria faberii); test: Test A preemergence; details: Setaria faberi, pre-emergence, 240 h
Outline: as §2

kochia (Kochia scoparia) [7] = test: Test A preemergence; details: Bassia scoparia, pre-emergence, 240 h
Outline: as §2

[8] = tested on: pigweed (Amaranthus retroflexus); test: Test A preemergence; details: Amaranthus retroflexus, pre-emergence, 240 h
Outline: as §2

[9] = tested on: ragweed (common ragweed, Ambrosia elatior); test: Test A preemergence; details: Ambrosia artemisiifolia, pre-emergence, 240 h
Outline: as §2

[10] = tested on: Italian ryegrass (Lolium multiflorum); test: Test A postemergence; details: Lolium multiflorum, post-emergence, 240 h, 0 to 100 scale, read-out: Plant response rating, Ryegrass, Italian
Outline: as §2

[11] = tested on: barnyardgrass (Echinochloa crus-galli); test: Test A postemergence; details: Echinochloa crus-galli, post-emergence, 240 h, 0 to 100 scale, read-out: Plant response rating, Barnyardgrass
Outline: as §2

[12] = tested on: blackgrass (Alopecurus myosuroides); test: Test A postemergence; details: Alopecurus myosuroides, post-emergence, 240 h, 0 to 100 scale, read-out: Plant response rating, Blackgrass
Outline: as §2

corn (Zea mays) = test: Test A postemergence; details: Zea mays, post-emergence, 240 h, 0 to 100 scale
Outline: as §2

[13] = tested on: galium (catchweed bedstraw, Galium aparine); test: Test A postemergence; details: Galium, post-emergence, 240 h, 0 to 100 scale, read-out: Plant response rating, Galium
Outline: as §2

[14] = tested on: giant foxtail (Setaria faberii); test: Test A postemergence; details: Setaria faberi, post-emergence, 240 h, 0 to 100 scale, read-out: Plant response rating, Foxtail, Giant
Outline: as §2

kochia (Kochia scoparia) [15] = test: Test A postemergence; details: Bassia scoparia, post-emergence, 240 h, 0 to 100 scale, read-out: Plant response rating, Kochia
Outline: as §2

[16] = tested on: pigweed (Amaranthus retroflexus); test: Test A postemergence; details: Amaranthus retroflexus, post-emergence, 240 h, 0 to 100 scale, read-out: Plant response rating, Pigweed
Outline: as §2

[17] = tested on: ragweed (common ragweed, Ambrosia elatior); test: Test A postemergence; details: Ambrosia artemisiifolia, post-emergence, 240 h, 0 to 100 scale, read-out: Plant response rating, Ragweed
Outline: as §2

[18] = tested on: wheat (Triticum aestivum); test: Test A postemergence; details: Triticum aestivum, post-emergence, 240 h, 0 to 100 scale, read-out: Plant response rating, Wheat
Outline: as §2

kochia (Kochia scoparia) [19] = test: Test C postemergence; details: Bassia scoparia, post-emergence, Postemergence, scale 0 to 100, read-out: Plant response rating, Kochia
Outline: (§3)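 Greenhouse test; preemergence to seeds in loam/sand soil, or postemergence spray to 2-18 cm, 1- to 4-leaf plants in peat/vermiculite medium; compound in non-phytotoxic solvent plus surfactant. Visual rating vs controls at 13-15 d, 0 = no effect, 100 = complete control.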

[20] = tested on: waterhemp (common waterhemp, Amaranthus rudis); test: Test C postemergence; details: Amaranthus tuberculatus, post-emergence, Postemergence, scale 0 to 100, read-out: Plant response rating, Waterhemp
Outline: as §3

wild oat (Avena fatua) = test: Test C postemergence; details: Avena fatua, post-emergence, Postemergence, scale 0 to 100, read-out: Plant response rating, Oat, Wild
Outline: as §3

FC(F)c1cccc(Oc2ncc(Cl)cn2)c1Oc1ncc(Cl)cn1 [Compound 46, 2,2′-[[3-(difluoromethyl)-1,2-phenylene]bis(oxy)]bis[5-chloropyrimidine]]
pest or weed control at 250 g/ha [1]: 0% | pest or weed control at 250 g/ha [2]: 80% | plant injury at 250 g/ha (rice (Oryza sativa)): 10% | pest or weed control at 250 g/ha [3]: 65% | pest or weed control at 125 g/ha ([4]; 125 g ai/ha, 0 to 100 scale (0 no effect, 100 complete control), read-out: Ryegrass, Italian plant response rating): 30% | pest or weed control at 500 g/ha ([4]; 500 g ai/ha, 0 to 100 scale, read-out: Plant response rating, Ryegrass, Italian): 80% | pest or weed control at 125 g/ha ([5]; 125 g ai/ha, 0 to 100 scale (0 no effect, 100 complete control), read-out: Barnyardgrass plant response rating): 90% | pest or weed control at 500 g/ha ([5]; 500 g ai/ha, 0 to 100 scale, read-out: Plant response rating, Barnyardgrass): 100% | pest or weed control at 125 g/ha ([6]; 125 g ai/ha, 0 to 100 scale (0 no effect, 100 complete control), read-out: Foxtail, Giant plant response rating): 100% | pest or weed control at 500 g/ha ([6]; 500 g ai/ha, 0 to 100 scale, read-out: Plant response rating, Foxtail, Giant): 100% | pest or weed control at 125 g/ha (kochia (Kochia scoparia) [7]; 125 g ai/ha, 0 to 100 scale (0 no effect, 100 complete control), read-out: Kochia plant response rating): 100% | pest or weed control at 500 g/ha (kochia (Kochia scoparia) [7]; 500 g ai/ha, 0 to 100 scale, read-out: Plant response rating, Kochia): 100% | pest or weed control at 125 g/ha ([8]; 125 g ai/ha, 0 to 100 scale (0 no effect, 100 complete control), read-out: Pigweed plant response rating): 100% | pest or weed control at 500 g/ha ([8]; 500 g ai/ha, 0 to 100 scale, read-out: Plant response rating, Pigweed): 100% | pest or weed control at 125 g/ha ([9]; 125 g ai/ha, 0 to 100 scale (0 no effect, 100 complete control), read-out: Ragweed plant response rating): 90% | pest or weed control at 500 g/ha ([9]; 500 g ai/ha, 0 to 100 scale, read-out: Plant response rating, Ragweed): 100% | pest or weed control at 125 g/ha ([10]; 125 g ai/ha): 90% | pest or weed control at 500 g/ha ([10]; 500 g ai/ha): 100% | pest or weed control at 125 g/ha ([11]; 125 g ai/ha): 90% | pest or weed control at 500 g/ha ([11]; 500 g ai/ha): 100% | pest or weed control at 125 g/ha ([12]; 125 g ai/ha): 90% | pest or weed control at 500 g/ha ([12]; 500 g ai/ha): 100% | Corn plant response rating (crop injury, 0 = no effect, 100 = complete kill) at 125 g/ha (corn (Zea mays); 125 g ai/ha): 90% | Corn plant response rating (crop injury, 0 = no effect, 100 = complete kill) at 500 g/ha (corn (Zea mays); 500 g ai/ha): 100% | pest or weed control at 125 g/ha ([13]; 125 g ai/ha): 100% | pest or weed control at 500 g/ha ([13]; 500 g ai/ha): 100% | pest or weed control at 125 g/ha ([14]; 125 g ai/ha): 90% | pest or weed control at 500 g/ha ([14]; 500 g ai/ha): 100% | pest or weed control at 125 g/ha (kochia (Kochia scoparia) [15]; 125 g ai/ha): 100% | pest or weed control at 500 g/ha (kochia (Kochia scoparia) [15]; 500 g ai/ha): 60% | pest or weed control at 125 g/ha ([16]; 125 g ai/ha): 100% | pest or weed control at 500 g/ha ([16]; 500 g ai/ha): 100% | pest or weed control at 125 g/ha ([17]; 125 g ai/ha): 100% | pest or weed control at 500 g/ha ([17]; 500 g ai/ha): 100% | plant injury at 125 g/ha ([18]; 125 g ai/ha): 50% | plant injury at 500 g/ha ([18]; 500 g ai/ha): 100% | pest or weed control at 16 g/ha (kochia (Kochia scoparia) [19]; 16 g ai/ha): 70% | pest or weed control at 31 g/ha (kochia (Kochia scoparia) [19]; 31 g ai/ha): 80% | pest or weed control at 62 g/ha (kochia (Kochia scoparia) [19]; 62 g ai/ha): 95% | pest or weed control at 125 g/ha (kochia (Kochia scoparia) [19]; 125 g ai/ha): 100% | pest or weed control at 31 g/ha ([20]; 31 g ai/ha): 50% | pest or weed control at 62 g/ha ([20]; 62 g ai/ha): 70% | pest or weed control at 125 g/ha ([20]; 125 g ai/ha): 5% | pest or weed control at 31 g/ha (wild oat (Avena fatua); 31 g ai/ha): 5% | pest or weed control at 62 g/ha (wild oat (Avena fatua); 62 g ai/ha): 5% | pest or weed control at 125 g/ha (wild oat (Avena fatua); 125 g ai/ha): 10%
